Common to all, as to format: in vitro ADME
One series concerns the target CYP3A4 (Homo sapiens (Human), UniProt P08684). In words: CYP3A4 fluorescent MBI test. The note with it: pre-reaction time 0 or 30 minutes; substrate 7-BFC; CYP3A4 expressed in Escherichia coli. How it is done: The CYP3A4 fluorescent MBI test is a test of investigating enhancement of CYP3A4 inhibition of a compound by a metabolism reaction, and the test is performed using, as CYP3A4 enzyme expressed in Escherichia coli and employing, as an index, a reaction in which 7-benzyloxytrifluoromethylchmarin (BFC) is debenzylated by the CYP3A4 enzyme to produce a metabolite, 7-hydroxytrifluoromethylchmarin (HFC) emitting fluorescent light.
The reaction conditions were as follows: substrate, 5.6 μmol/L 7-BFC; pre-reaction time, 0 or 30 minutes; reaction time, 15 minutes; reaction temperature, 25° C.
An enzyme in a K-Pi buffer (pH 7.4) and a test drug solution as a pre-reaction solution were added to a 96-well plate at the composition of the pre-reaction, a part of it was transferred to another 96-well plate so that it was 1/10 diluted by a substrate in a K-Pi buffer, NADPH as a co-factor was added to initiate a reaction as an index (without preincubation) and, after a predetermined time of a reaction, acetonitrile: 0.5 mol/L Tris (trishydroxyaminomethane)=4:1 was added to stop the reaction. In addition, NADPH was added to a remaining preincubation solution to initiate a preincubation (with preincubation) and, after a predetermined time of a preincubation, a part was transferred to another plate so that it was 1/10 diluted with a substrate and a K-Pi buffer to initiate a reaction as an index, After a predetermined time of a reaction, acetonitrile: 0.5 mol/L Tris (trishydroxyaminomethane)=4:1 was added to stop the reaction. For the plate on which each index reaction had been performed, a fluorescent value of 7-HFC which is a metabolite was measured with a fluorescent plate reader. (Ex=420 nm, Em=535 nm).
Addition of only DMSO which is a solvent dissolving a drug to a reaction system was adopted as a control (100%), remaining activity (%) was calculated at each concentration of a test drug added as the solution, and IC50 was calculated by reverse-presumption by a logistic model using a concentration and an inhibition rate. When a difference between IC50 values is 5 or more, this was defined as (+) and, when the difference is 3 μmol/L or less, this was defined as (−).

For the next series, the target named is CYP1A2 (Homo sapiens (Human), UniProt P05177). In words: CYP inhibition test, 7-ethoxyresorufin O-deethylation. The note with it: pooled human hepatic microsome; 0.5 μmol/L ethoxyresorufin; given as 'five kinds'. How it is done: (§1) Using commercially available pooled human hepatic microsome, and employing, as markers, 7-ethoxyresorufin O-deethylation (CYP1A2), tolbutamide methyl-hydroxylation (CYP2C9), mephenyloin 4′-hydroxylation (CYP2C19), dextromethorphan O-demethylation (CYP2D6), and terfenedine hydroxylation as typical substrate metabolism reactions of human main five ([…] enzyme forms (CYP1A2, 2C9, 2C19, 2D6, 3A4), an inhibitory degree of each metabolite production amount by a test compound was assessed.
Chain of CYP1A2 (P05177 whole entry): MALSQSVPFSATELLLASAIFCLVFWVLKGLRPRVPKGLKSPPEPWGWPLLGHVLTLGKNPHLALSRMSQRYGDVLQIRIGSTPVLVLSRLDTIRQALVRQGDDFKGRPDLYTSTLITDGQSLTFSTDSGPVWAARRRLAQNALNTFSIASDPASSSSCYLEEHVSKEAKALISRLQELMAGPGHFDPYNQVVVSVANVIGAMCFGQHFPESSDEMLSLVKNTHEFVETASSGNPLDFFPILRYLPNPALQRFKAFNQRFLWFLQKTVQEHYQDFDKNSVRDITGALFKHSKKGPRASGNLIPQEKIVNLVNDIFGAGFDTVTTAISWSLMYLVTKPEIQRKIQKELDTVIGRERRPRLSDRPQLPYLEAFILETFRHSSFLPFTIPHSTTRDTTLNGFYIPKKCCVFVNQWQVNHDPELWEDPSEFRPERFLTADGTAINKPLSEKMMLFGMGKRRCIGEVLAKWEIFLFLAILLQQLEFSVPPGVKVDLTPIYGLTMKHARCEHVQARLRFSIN
(§2) The reaction conditions were as follows: substrate, 0.5 μmol/L ethoxyresorufin (CYP1A2), 100 μmol/L tolbutamide (CYP2C9), 50 μmol/L S-mephenitoin (CYP2C19), 5 μmol/L dextromethorphan (CYP2D6), 1 μmol/L terfenedine (CYP3A4); reaction time, 15 minutes; reaction temperature, 37° C.; enzyme, pooled human hepatic microsome 0.2 mg protein/mL; test drug concentration, 1.0. 5.0, 10, 20 μmol/L (four points).
(§3) Each five kinds of substrates, human hepatic microsome, or a test drug in 50 mmol/L Hepes buffer as a reaction solution was added to a 96-well plate at the composition as described above. NADPH, as a cofactor was added to initiate metabolism reactions as markers and, after the incubation at 37° C. for 15 minutes, a methanol/acetonitrile=1/1 (v/v) solution was added to stop the reaction. After the centrifugation at 3000 rpm for 15 minutes, resorufin (CYP1A2 metabolite) in the supernatant was quantified by a fluorescent multilabel counter and tributamide hydroxide (CYP2CP metabolite), mephenyloin 4′ hydroxide (CYP2C19 metabolite), […], and terfenadine alcohol (CYP3A4 metabolite) were quantified by LC/MS/MS.
(§4) Addition of only DMSO being a solvent dissolving a drug to a reaction system was adopted as a control (100%), remaining activity (%) was calculated at each concentration of a test drug added as the solution and IC50 was calculated by reverse presumption by a logistic model using a concentration and an inhibition rate.

For a further series, the target named is CYP2C9 (Homo sapiens (Human), UniProt P11712). Nature of the series: CYP inhibition test, tolbutamide methyl-hydroxylation. Conditions: pooled human hepatic microsome; 100 μmol/L tolbutamide; given as 'five kinds'. As to the method:
as §1, §2, §3, §4

The target of another series is CYP2D6 (Homo sapiens (Human), UniProt P10635). Nature of the series: CYP inhibition test, dextromethorphan O-demethylation. The note with it: pooled human hepatic microsome; 5 μmol/L dextromethorphan; given as 'five kinds'. How it is done:
as §1, §2, §3, §4

A short description of series [1]: Metabolism stability test (pooled human hepatic microsomes). Conditions: human liver microsomes 0.5 mg protein/mL; 37° C., 30 minutes; 1 mmol/L NADPH; compound concentration 0.5 μmol/L. How it is done:
Using commercially available pooled human hepatic microsomes, a test compound was reacted for a constant time, a remaining rate was calculated by comparing a reacted sample and an unreacted sample, thereby, a degree of metabolism in liver was assessed.
A reaction was performed (oxidative reaction) at 37° C. for 0 minute or 30 minutes in the presence of 1 mmol/L NADPH in 0.2 mL of a buffer (50 mmol/L tris-HCl pH 7.4, 150 mmol/L potassium chloride, 10 mmol/L magnesium chloride) containing 0.5 mg protein/mL of human liver microsomes. After the reaction, 50 μL of the reaction solution was added to 100 μL of a methanol/acetonitrile 1/1 (v/v), mixed and centrifuged at 3000 rpm for 15 minutes. The test compound in the supernatant was quantified by LC/MS/MS, and a remaining amount of the test compound after the reaction was calculated, letting a compound amount at 0 minute reaction time to be 100%.
Background: Liver microsomes are a subcellular fraction often used to study metabolism.

Molecules are shown by their SMILES.

Chain of CYP3A4 (P08684 whole entry): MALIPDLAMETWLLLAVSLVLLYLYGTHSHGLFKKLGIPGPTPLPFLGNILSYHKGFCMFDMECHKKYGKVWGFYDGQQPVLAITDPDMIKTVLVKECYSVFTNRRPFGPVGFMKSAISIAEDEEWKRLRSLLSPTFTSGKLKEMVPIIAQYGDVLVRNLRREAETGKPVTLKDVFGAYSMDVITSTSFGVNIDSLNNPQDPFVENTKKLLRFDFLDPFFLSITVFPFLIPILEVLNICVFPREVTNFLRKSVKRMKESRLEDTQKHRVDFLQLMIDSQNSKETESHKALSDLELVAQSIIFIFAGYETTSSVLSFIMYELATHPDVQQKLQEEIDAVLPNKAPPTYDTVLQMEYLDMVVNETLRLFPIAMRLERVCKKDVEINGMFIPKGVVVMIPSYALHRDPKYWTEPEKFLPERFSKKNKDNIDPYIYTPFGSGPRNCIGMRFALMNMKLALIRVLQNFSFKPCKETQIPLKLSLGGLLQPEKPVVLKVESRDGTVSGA
Chain of CYP2D6 (P10635 whole entry): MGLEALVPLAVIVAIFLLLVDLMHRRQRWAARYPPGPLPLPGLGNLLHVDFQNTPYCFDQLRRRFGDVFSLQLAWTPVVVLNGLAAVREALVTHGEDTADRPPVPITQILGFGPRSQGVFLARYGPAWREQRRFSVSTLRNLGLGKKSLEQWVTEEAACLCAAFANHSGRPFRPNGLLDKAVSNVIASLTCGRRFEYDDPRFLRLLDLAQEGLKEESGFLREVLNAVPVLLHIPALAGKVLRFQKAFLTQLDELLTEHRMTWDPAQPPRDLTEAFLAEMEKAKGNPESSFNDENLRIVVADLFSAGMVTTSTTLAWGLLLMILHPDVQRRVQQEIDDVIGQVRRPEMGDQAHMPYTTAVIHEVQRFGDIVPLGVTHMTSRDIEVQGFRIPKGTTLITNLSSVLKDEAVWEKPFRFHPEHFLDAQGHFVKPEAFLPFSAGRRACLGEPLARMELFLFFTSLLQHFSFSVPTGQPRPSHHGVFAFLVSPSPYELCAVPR
Chain of CYP2C9 (P11712 whole entry): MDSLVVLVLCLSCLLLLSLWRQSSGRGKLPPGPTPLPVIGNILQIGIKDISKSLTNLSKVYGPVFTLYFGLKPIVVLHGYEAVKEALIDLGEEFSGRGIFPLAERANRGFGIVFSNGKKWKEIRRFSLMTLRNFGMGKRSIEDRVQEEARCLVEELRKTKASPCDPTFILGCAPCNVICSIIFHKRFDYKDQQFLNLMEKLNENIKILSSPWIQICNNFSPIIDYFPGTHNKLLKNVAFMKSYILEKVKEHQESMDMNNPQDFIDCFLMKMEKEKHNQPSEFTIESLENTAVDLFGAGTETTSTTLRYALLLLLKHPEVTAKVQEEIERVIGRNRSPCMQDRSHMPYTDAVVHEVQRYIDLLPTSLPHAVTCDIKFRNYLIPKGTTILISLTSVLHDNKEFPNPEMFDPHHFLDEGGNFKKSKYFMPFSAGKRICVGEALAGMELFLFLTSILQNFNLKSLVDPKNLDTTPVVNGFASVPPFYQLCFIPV

A word on the IC50: it is the concentration needed to halve the response being measured. Low readings indicate inhibition by little substance, high ones a need for much substance. As to `CC(C)Oc1ccc(Nc2cc(=O)n(C[C@H](C)C(=O)O)c(=O)n2Cc2ccc(Cl)cc2)cc1Cl` [I-100], the IC50 difference at CYP3A4 was < 3 µM. Further, the concentration for half-maximal inhibition (IC50) against CYP1A2, against CYP2C9 and on CYP2D6 was > 20 µM throughout. The remaining rate in series [1] worked out at 101%.

(Values after patent US9212130B2, “Heterocyclic derivative and pharmaceutical composition comprising the same” (SHIONOGI & CO., LTD., priority 2010, dated 2015).)
